Experimental data as given in patent US4202802A, “Peptides related to somatostatin” (Eli Lilly and Company, priority 1978, dated 1980).
Where “and” joins values, the source holds several entries; their conditions need not be identical. Identical values can stand only once. Bridge positions count the residues as written; N and C are the ends. Square brackets hold non-standard residues; d marks the D form. Peptide text beside a SMILES is read from it.

Key:
serum insulin = assay: Insulin Inhibition In Dogs (I.V. infusion of test compound with L-alanine infusion, serum insulin by radioimmunoassay); assay type: in vivo, dog; settings: for inhibition of insulin concentration: fasted dog, I.V. infusion, doses: Example 4 0.147, Example 7 0.182, Example 10 0.247 μg/kg/min, Example 14 0.092, 0.126, 0.128, 0.198 μg/kg/min and 0.305 mg/kg/min
Procedure: (§1) A normal dog is fasted overnight. An intravenous (I.V.) infusion of the test compound (dissolved in saline) is begun. Thirty minutes thereafter an additional infusion of L-alanine (dissolved in saline) is begun and is continued for a total of 15 minutes so that a total dose of about 1 mmole of L-alanine per kg. body weight is given. Infusion of the test compound is continued for an additional 15 minute period.
(§2) Blood samples are taken periodically before (at -20, -10 and -1 minutes) and after (5, 10, 15, 30, 35, 40, 45, 50, 60, 90, 120 and 150 minutes) the start of the infusion of the test compound. The serum insulin and serum glucagon concentrations in the blood are determined by radioimmunoassay. A plot is made of the glucagon and insulin concentrations versus time. The plot obtained from the test compound is compared to plots obtained from somatostatin and saline (controls) in similar experiments.
(§3) Infusion of L-alanine (in the absence of somatostatin or active test compound) causes an abrupt increase in serum insulin and glucagon concentrations. The concentrations return to basal levels after the L-alanine infusion is terminated. Infusion of somalostatin (alone) causes a decrease in basal serum concentrations of insulin and glucagon.

[1] = system: growth hormone (GH) secretion; assay: Growth Hormone Inhibition In Rats (pentobarbital-stimulated GH secretion, serum GH by radioimmunoassay); assay type: in vivo; settings: male rats, peptide S.C.; for Serum Growth Hormone Conc. Mean ± SEM: pentobarbital 4 mg/rat I.P.
Procedure: This test is a modification of the method of P. Brazeau et al. Endocrinology, 94, 184 (1974). Male rats (weighing 100-110 g.) are divided into three groups of eight rats each. Each rat is administered sodium pentobarbital at a dose of 4 mg/rat (I.P.) to stimulate growth hormone (GH) secretion. Simultaneously, one group of rats receives the test compound (S.C.); the second group receives somatostatin (S.C.); and the third group (control) receives saline (S.C.). Twenty-minutes later, the animals are decapitated and blood samples are collected. The serum concentration of growth hormone (GH) is determined by radioimmunoassay. The mean GH concentration (±standard error of the mean) is calculated for each group. The percent inhibition of GH release (as compared to saline controls) is then calculated for the test compound and for somatostatin. When tested as above-described, the peptides of Example 4, 7, 10, and 14, representative of the peptides of Formula III, gave the results set forth below in Table I: […]

serum glucagon = assay: Glucagon Inhibition In Dogs (I.V. infusion of test compound with L-alanine infusion, serum glucagon by radioimmunoassay); assay type: in vivo, dog; settings: for inhibition of glucagon concentration: fasted dog, I.V. infusion, doses: Example 4 0.147, Example 7 0.182, Example 10 0.247 μg/kg/min, Example 14 0.092, 0.126, 0.128, 0.198 μg/kg/min and 0.305 mg/kg/min
Procedure: as §1, §2, §3

[2] = Dose (mg/kg) 2, 20 min after dosing
[3] = Dose (mg/kg) 50, 20 min after dosing
[4] = dog, in the presence of L-alanine
[5] = dog, infusion alone (no L-alanine)

`CC(C)[C@@H](N)C(=O)NCC(=O)N[C@H]1CSSC[C@@H](C(=O)O)NC(=O)[C@H](CO)NC(=O)[C@H]([C@@H](C)O)NC(=O)[C@@H](Cc2ccccc2)NC(=O)[C@H]([C@@H](C)O)NC(=O)[C@H](CCCCN)NC(=O)[C@@H](Cc2c[nH]c3ccccc23)NC(=O)[C@H](Cc2ccccc2)NC(=O)[C@H](Cc2ccccc2)NC(=O)[C@H](C)NC(=O)[C@H](CCCCN)NC1=O` [Example 7, D-Valyl-L-glycyl-L-cysteinyl-L-lysyl-L-alanyl-L-phenylalanyl-L-phenylalanyl-D-tryptophyl-L-lysyl-L-threonyl-D-phenyl-alanyl-L-threonyl-L-seryl-L-cysteine cyclic (3->14) disulfide] (H-[dV]GCKAFF[dW]KT[dF]TSC-OH; disulfide 3-14) was tested, and the “inhibition of insulin concentration” value (serum insulin) was “no significant inhibition”, the Serum Growth Hormone Conc. Mean ± SEM [1, 2] was 94.7 ± 22 ng/mL and the Serum Growth Hormone Conc. Mean ± SEM [1, 3] was 38.7 ng/mL. For the same compound, the “% Inhibition of GH release (as compared to saline controls)” value (shortened to “% Inhibition of GH release”) ([1]; Dose (mg/kg) 2) was 45.9%, the “% Inhibition of GH release” value ([1]; Dose (mg/kg) 50) was 77.5% and the “inhibition of glucagon concentration” value (serum glucagon) was “no significant inhibition”.

In the case of `C[C@H](N)C(=O)N[C@H](C)C(=O)N[C@H]1CSSC[C@@H](C(=O)O)NC(=O)[C@H](CO)NC(=O)[C@H]([C@@H](C)O)NC(=O)[C@@H](Cc2ccccc2)NC(=O)[C@H]([C@@H](C)O)NC(=O)[C@H](CCCCN)NC(=O)[C@@H](Cc2c[nH]c3ccccc23)NC(=O)[C@H](Cc2ccccc2)NC(=O)[C@H](Cc2ccccc2)NC(=O)[C@H](C)NC(=O)[C@H](CCCCN)NC1=O` [Example 14, L-Alanyl-D-alanyl-L-cysteinyl-L-lysyl-L-alanyl-L-phenylalanyl-L-phenylalanyl-D-tryptophyl-L-lysyl-L-threonyl-D-phenylalanyl-L-threonyl-L-seryl-L-cysteine cyclic (3->14) disulfide] (H-A[dA]CKAFF[dW]KT[dF]TSC-OH; disulfide 3-14), the “inhibition of insulin concentration” value (serum insulin) is reported as “no significant inhibition”, the Serum Growth Hormone Conc. Mean ± SEM [1, 2] is reported as 132 ± 69.4 ng/mL and the Serum Growth Hormone Conc. Mean ± SEM [1, 3] is reported as 77.8 ± 19.6 ng/mL. The “% Inhibition of GH release” value ([1]; Dose (mg/kg) 2) was 20%, the “% Inhibition of GH release” value ([1]; Dose (mg/kg) 50) was 53% and the “inhibition of glucagon concentration” value (serum glucagon) was “no significant inhibition”.

With `CC(C)C[C@@H]1NC(=O)[C@H](C)NC(=O)[C@H](CCCCN)NC(=O)[C@@H](NC(=O)CNC(=O)[C@H](N)C(C)C)CSSC[C@@H](C(=O)O)NC(=O)[C@H](CO)NC(=O)[C@H]([C@@H](C)O)NC(=O)[C@@H](Cc2ccccc2)NC(=O)[C@H]([C@@H](C)O)NC(=O)[C@H](CCCCN)NC(=O)[C@@H](Cc2c[nH]c3ccccc23)NC(=O)[C@H](Cc2ccccc2)NC1=O` [Example 10, D-Valyl-L-glycyl-L-cysteinyl-L-lysyl-L-alanyl-L-leucyl-L-phenylalanyl-D-tryptophyl-L-lysyl-L-threonyl-D-phenylalanyl-L-threonyl-L-seryl-L-cysteine cyclic (3->14) disulfide] (H-[dV]GCKALF[dW]KT[dF]TSC-OH; disulfide 3-14) the “inhibition of insulin concentration” value (serum insulin) was “no significant inhibition”, the Serum Growth Hormone Conc. Mean ± SEM [1, 2] was 82.8 ± 19.6 ng/mL and the Serum Growth Hormone Conc. Mean ± SEM [1, 3] was 93.5 ± 22.6 ng/mL. The “% Inhibition of GH release” value ([1]; Dose (mg/kg) 2) was 37.3%, the “% Inhibition of GH release” value ([1]; Dose (mg/kg) 50) was 29.3% and the “inhibition of glucagon concentration” value (serum glucagon) was “no significant inhibition”.

With `CC(C)[C@@H](N)C(=O)NCC(=O)N[C@H]1CSSC[C@@H](C(=O)O)NC(=O)[C@H](CO)NC(=O)[C@H]([C@@H](C)O)NC(=O)[C@@H](Cc2ccccc2)NC(=O)[C@H]([C@@H](C)O)NC(=O)[C@H](CCCCN)NC(=O)[C@@H](Cc2c[nH]c3ccccc23)NC(=O)[C@H](Cc2ccccc2)NC(=O)[C@@H](Cc2ccccc2)NC(=O)[C@H](C)NC(=O)[C@H](CCCCN)NC1=O` [Example 4, D-Valyl-L-glycyl-L-cysteinyl-L-lysyl-L-alanyl-D-phenylalanyl-L-phenylalanyl-D-tryptophyl-L-lysyl-L-threonyl-D-phenyl-alanyl-L-threonyl-L-seryl-L-cysteine cyclic (3->14) disulfide] (H-[dV]GCKA[dF]F[dW]KT[dF]TSC-OH; disulfide 3-14) the “inhibition of insulin concentration” value (serum insulin) was “no significant inhibition”, the Serum Growth Hormone Conc. Mean ± SEM [1, 2] was 72.1 ± 27.3 ng/mL and the Serum Growth Hormone Conc. Mean ± SEM [1, 3] was 31.9 ± 16.6 ng/mL. The “% Inhibition of GH release” value ([1]; Dose (mg/kg) 2) was 27.9%, the “% Inhibition of GH release” value ([1]; Dose (mg/kg) 50) was 68.1% and the “inhibition of glucagon concentration” value (serum glucagon) was “no significant inhibition”.

With `C[C@H](N)C(=O)NCC(=O)N[C@H]1CSSC[C@@H](C(=O)O)NC(=O)[C@H](CO)NC(=O)[C@H]([C@@H](C)O)NC(=O)[C@H](Cc2ccccc2)NC(=O)[C@H]([C@@H](C)O)NC(=O)[C@H](CCCCN)NC(=O)[C@H](Cc2c[nH]c3ccccc23)NC(=O)[C@H](Cc2ccccc2)NC(=O)[C@H](Cc2ccccc2)NC(=O)[C@H](CC(N)=O)NC(=O)[C@H](CCCCN)NC1=O` [Somatostatin] the “effect on the increase in insulin concentration induced by L-alanine” value (serum insulin; [4]) was “inhibits the increase”, the “effect on basal serum concentration of insulin” value (serum insulin; [5]) was “decrease” and the “% Inhibition of GH release” value ([1]; Dose (mg/kg) 2) was 0%. The “% Inhibition of GH release” value ([1]; Dose (mg/kg) 50) was 86.6% and 84.9% and 89.7% and 93%, the “effect on the increase in glucagon concentration induced by L-alanine” value (serum glucagon; [4]) was “inhibits the increase” and the “effect on basal serum concentration of glucagon” value (serum glucagon; [5]) was “decrease”.
